Laboratory results: patent US20230355547A1, “STABILIZATION OF VITAMIN A IN A NUTRITIONAL SOLUTION” (BAXTER INTERNATIONAL INC., priority 2020, published 2023)

Test: Impact of dissolved oxygen on the stability of vitamin A in a 10% soybean lipid emulsion (Example 4)
Type: physicochemical
Settings: more than 6 months at 40° C., independently of light exposure
From the text: Accordingly, at an oxygen level of about 0.300 ppm vitamin A after 6 months is no longer considered stable, i.e. recovery drops below 80%.
Various methods can be used to determine the DO content of a given solution. Generally, electrochemical or optical sensors are used for determining the DO concentration according to the invention. A preferred method comprises using a fiber-optic oxygen meter such as MICROX TX3, which is a single-channel, temperature-compensated oxygen meter with fiber-optic trace oxygen microsensors based on a glass fiber (e.g. 140 μm). […] For data visualization during measurements, the oxygen meter is connected to a LCD & Data-Logger Unit.
The stability of vitamin A was tested in a 10% soybean lipid emulsion having a peroxide level of below 5 milliequivalents (mEq) O2/kg. The lipid emulsion contained vitamin A in a concentration of 1 dd/25 mL, as well as vitamin E in a concentration of 1 dd/25 mL and the pH was adjusted to 5.9 with HCl.
FIG. 2 depicts the dependency of vitamin A recovery on the presence of dissolved oxygen.

- stability in the presence of oxygen of above 0.3 ppm: not stable
Substance: vitamin A
